Laboratory results: patent US12031897B2, “Target-locking single-molecule nanoscopy” (Memorial Sloan Kettering Cancer Center, priority 2019, dated 2024)

Assays:
[1] = target: T1, Brd4 foci at the Pou5f1 locus (Mus musculus, UniProt Q9ESU6); assay: Brd4 cluster signal at Pou5f1 upon inhibition (live-cell confocal/STED scans); format: cell-based; conditions: for Brd4 signal at Pou5f1 upon inhibition: 1 μM JQ1 (within 1 min) or 10 μM Flavopiridol
T1 construct: integrating a SNAP-tag at the N-terminus of the endogenous Brd4; endogenous in cells; host or cells: mouse ESCs OMG-1, homozygous SNAP-Brd4 knock-in clone 9 (printed as 'OMG SNAP-Cdk9 clone 9')
Method: For real-time confocal and STED imaging, example implementations may program the wave generator to scan 2 μm×2 μm or 1 μm×1 μm xy areas in 0.8 sec or 0.2 sec respectively. 3D scanning was performed (via, e.g., detection system 150) by acquiring 5 xy scans while moving the stage by 0.5 μm in z between scans. TTL pulses corresponding to single-photon events from the APDs, together with the trigger pulses from the wave generator were detected using a field-programmable gate array (FPGA) data acquisition system (National Instruments, PCIe-7852R).
Before imaging, cells were seeded onto 8-chamber coverglass (LabTek, 155411) coated with 5 μg/ml laminin (BioLamina LN511), in −2i media (OMG) or +2i media (NMG) and appropriate drugs. For SiR staining, cells were labeled with media containing 0.3 μM SiR-BG for 10 mins, at 37° C., followed by three washes with new media.
To generate OMG or NMG SNAP-Brd4 targeted cells, OMG-1 or NMG mESCs (1×106) were transfected with 10 μg SNAP-Brd4 donor vector and 0.6 μg espCas9-gRNA-Brd4 vector. 10 days after transfection, the cells were trypsinized, labeled with SiR-BG and subjected to FACS, generating a first-round SiR-positive pool. This pool was then expanded, stained with SiR-BG and subjected to second FACS round and individual clones were picked and expanded.

[2] = tested on: CMV mini-gene transcription site (tdPCP-EGFP nascent RNA); assay: tdPCP-EGFP nascent transcription dynamics at the CMV mini-gene after inhibitor addition (wide-field live-cell imaging); format: cell-based, human; conditions: U-2 OS cells, after adding 10 μM flavopiridol or 10 μM triptolide, individual transcription site traces, mean±S.D.
Source text: It can be observed that Pol II accumulates at sites of active nascent transcription. Example implementations may first image Pol II dynamics relative to transcription from a single promoter in a synthetic “mini-gene” system, stably integrated as single copies in U-2 OS cells (FIGS. 4A, 11A-11C). Example implementations may track nascent RNA production via phage PP7-derived stem-loops (24×PP7) and a tandem-dimer phage coat protein EGFP fusion (tdPCP-EGFP).
It can be observed in various embodiments that target-locking enables tracking Pol II dynamics during the transcription cycle. […]
Wide-Field Cell Imaging Experiments. […] The CCD data were analyzed using IDL 6.4 (ITTVIS). Maximum projection images were calculated for each stack, and the resulting 11 sec/frame movie was used to track the intensities of individual tdPCP-EGFP-tagged transcription sites. […] The auto-correlation function was calculated (for the tdPCP-EGFP fluctuation analysis), or the data were imported in Origin 8.5.0 (OriginLab) and the trace fitted to a single-exponential decay (for the transcription inhibition experiments).

Cc1sc2c(c1C)C(c1ccc(Cl)cc1)=N[C@@H](CC(=O)OC(C)(C)C)c1nnc(C)n1-2 [JQ1]
Brd4 signal at Pou5f1 upon inhibition [1]: drop sharply | Hill equation n, relative Brd4 signal at Pou5f1 vs. [JQ1] ([1]; Pou5f1): 1.3±0.3

CN1CC[C@H](c2c(O)cc(O)c3c(=O)cc(-c4ccccc4Cl)oc23)[C@H](O)C1 [flavopiridol]
Brd4 signal at Pou5f1 upon inhibition [1]: not lost | tdPCP-EGFP exponential decay time [2]: 132 ± 38 s

CC(C)[C@]12O[C@H]1[C@@H]1O[C@]13[C@]1(O[C@H]1C[C@H]1C4=C(CC[C@@]13C)C(=O)OC4)[C@@H]2O [triptolide]
tdPCP-EGFP exponential decay time [2]: 179 ± 57 s
